According to PubChem BioAssay (NCI):
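GI50: concentration for 50% inhibition of growth. TGI denotes the concentration required for complete inhibition of growth.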

Experiments:
Assay in all cases: NCI tumour cell line growth inhibition, 384-well format
[1] = system: A498 renal
[2] = system: T-47D breast
[3] = system: HOP-62 NSCLC
[4] = system: SF-295 CNS
[5] = system: OVCAR-8 ovarian
[6] = system: MDA-MB-435 melanoma
[7] = system: HOP-92 NSCLC
[8] = system: HT29 colon
[9] = system: OVCAR-3 ovarian
[10] = system: HCC-2998 colon
[11] = system: RPMI-8226 leukemia
[12] = system: TK-10 renal
[13] = system: M14 melanoma
[14] = system: DU-145 prostate
[15] = system: RXF 393 renal
[16] = system: NCI-H226 lung
[17] = system: MOLT-4 leukemia
[18] = system: CCRF-CEM leukemia
[19] = system: COLO 205 colon
[20] = system: SN12C renal
[21] = system: OVCAR-5 ovarian
[22] = system: K-562 leukemia
[23] = system: MCF7 breast
[24] = system: OVCAR-4 ovarian
[25] = system: HCT-116 colon
[26] = system: NCI-H322M lung
[27] = system: SK-MEL-2 melanoma
[28] = system: NCI-H23 lung
[29] = system: HL-60(TB) leukemia
[30] = system: ACHN renal
[31] = system: CAKI-1 renal
[32] = system: KM12 colon
[33] = system: UO-31 renal
[34] = system: IGROV1 ovarian
[35] = system: SK-OV-3 ovarian
[36] = system: SF-268 CNS
[37] = system: MDA-MB-231 breast
[38] = system: A549 NSCLC
[39] = system: SNB-19 CNS
[40] = system: SK-MEL-5 melanoma
[41] = system: U251 glioblastoma
[42] = system: HCT-15 colon
[43] = system: MDA-MB-468 breast
[44] = system: NCI-H522 lung
[45] = system: NCI-H460 NSCLC
[46] = system: PC-3 prostate
[47] = system: UACC-62 melanoma
[48] = system: NCI/ADR-RES ovarian
[49] = system: BT-549 breast
[50] = system: SR leukemia
[51] = system: LOX IMVI melanoma
[52] = system: 786-0 renal
[53] = system: UACC-257 melanoma
[54] = system: SK-MEL-28 melanoma
[55] = system: SW-620 colon
[56] = system: MALME-3M melanoma
[57] = system: SF-539 CNS

Cn1cc(S(=O)(=O)N2CCC3=Cc4c(cnn4-c4ccc(F)cc4)C[C@]3(C(=O)c3cc(C(F)(F)F)ccn3)C2)cn1
GI50 [1]: 12.5 µM | TGI [1]: > 100 µM | GI50 [2]: 3.09 µM | TGI [2]: > 100 µM | GI50 [3]: 5.17 µM | TGI [3]: > 100 µM | GI50 [4]: 11.5 µM | TGI [4]: > 100 µM | GI50 [5]: 46.8 µM | TGI [5]: > 100 µM | GI50 [6]: > 100 µM | TGI [6]: > 100 µM | GI50 [7]: 11.8 µM | TGI [7]: > 100 µM | GI50 [8]: > 100 µM | TGI [8]: > 100 µM | GI50 [9]: 9.32 µM | TGI [9]: > 100 µM | GI50 [10]: > 100 µM | TGI [10]: > 100 µM | GI50 [11]: 0.831 µM | TGI [11]: 3.1 µM | GI50 [12]: 78.8 µM | TGI [12]: > 100 µM | GI50 [13]: > 100 µM | TGI [13]: > 100 µM | GI50 [14]: > 100 µM | TGI [14]: > 100 µM | GI50 [15]: 1.98 µM | TGI [15]: 8.01 µM | GI50 [16]: 20.3 µM | TGI [16]: > 100 µM | GI50 [17]: 3.09 µM | TGI [17]: 9.44 µM | GI50 [18]: 4.73 µM | TGI [18]: > 100 µM | GI50 [19]: > 100 µM | TGI [19]: > 100 µM | GI50 [20]: > 100 µM | TGI [20]: > 100 µM | GI50 [21]: > 100 µM | TGI [21]: > 100 µM | GI50 [22]: 3.27 µM | TGI [22]: > 100 µM | GI50 [23]: 8.88 µM | TGI [23]: > 100 µM | GI50 [24]: 3.97 µM | TGI [24]: > 100 µM | GI50 [25]: 3.29 µM | TGI [25]: > 100 µM | GI50 [26]: > 100 µM | TGI [26]: > 100 µM | GI50 [27]: 42.8 µM | TGI [27]: > 100 µM | GI50 [28]: 1.34 µM | TGI [28]: 4.6 µM | GI50 [29]: 4.66 µM | TGI [29]: 12.9 µM | GI50 [30]: 31.6 µM | TGI [30]: > 100 µM | GI50 [31]: 25.6 µM | TGI [31]: > 100 µM | GI50 [32]: 46.6 µM | TGI [32]: > 100 µM | GI50 [33]: 11.8 µM | TGI [33]: > 100 µM | GI50 [34]: 14.1 µM | TGI [34]: > 100 µM | GI50 [35]: 5.8 µM | TGI [35]: > 100 µM | GI50 [36]: > 100 µM | TGI [36]: > 100 µM | GI50 [37]: 53.3 µM | TGI [37]: > 100 µM | GI50 [38]: 8.76 µM | TGI [38]: > 100 µM | GI50 [39]: > 100 µM | TGI [39]: > 100 µM | GI50 [40]: 7.3 µM | TGI [40]: > 100 µM | GI50 [41]: 15.4 µM | TGI [41]: > 100 µM | GI50 [42]: > 100 µM | TGI [42]: > 100 µM | GI50 [43]: 1.84 µM | TGI [43]: 6.55 µM | GI50 [44]: 3.19 µM | TGI [44]: 81.2 µM | GI50 [45]: 3.12 µM | TGI [45]: > 100 µM | GI50 [46]: 9.49 µM | TGI [46]: > 100 µM | GI50 [47]: 38.6 µM | TGI [47]: > 100 µM | GI50 [48]: 7.38 µM | TGI [48]: > 100 µM | GI50 [49]: 6.96 µM | TGI [49]: 55.7 µM | GI50 [50]: 1.87 µM | TGI [50]: 3.82 µM | GI50 [51]: 49 µM | TGI [51]: > 100 µM | GI50 [52]: 66 µM | TGI [52]: > 100 µM | GI50 [53]: 7.32 µM | TGI [53]: > 100 µM | GI50 [54]: > 100 µM | TGI [54]: > 100 µM | GI50 [55]: > 100 µM | TGI [55]: > 100 µM | GI50 [56]: 19.2 µM | TGI [56]: 71.1 µM | GI50 [57]: 54.3 µM | TGI [57]: > 100 µM
